In US20240317748A1, “CARBONYL SUBSTITUTED DIAZASPIRO COMPOUNDS AND ITS USE” (BIONOVA PHARMACEUTICALS (SHANGHAI) LIMITED, priority 2021, published 2024) one finds IC50 data, which are given here for 30 compounds.

The test system of test [1] is MV-4-11 cells. Put plainly: Cell proliferation assay (CellTiter-Glo), MV-4-11. In kind it is cell-based, human. The settings on record: Homo sapiens, MV4-11, 96 h; MV-4-11 (MLL-AF4), 4 days incubation; read-out: Cell antiproliferation assay MV-4-11 IC50. The method, then: The antiproliferative activity of test compounds was assessed in human leukemia cell lines. The cell line MV4-11, MOLM13 and OCI-AML3, which expresses the MLL fusion protein MLL-AF4, MLL-AF9 and carry the NPM1c gene mutation, respectively, were tested. HL-60 was used as a control cell line containing two MLL wildtype alleles in order to exclude compounds that display general cytotoxic effect. MV4-11 cells were cultured in IMDM supplemented with 10% FBS, MOLM13 and OCI-AML3 cells were cultured in RPMI1640 supplemented with 20% FBS, and HL-60 cells were cultured in IMDM supplemented with 20% FBS. Corresponding cells (MV4-11, MOLM13, OCI-AML3 or HL-60 cell line) were seeded in 100 uL medium per well in 96-well plate (white wall with clear bottom, tissue culture treated, Corning, Cat. No. CLS3903; Lot.No. 30419025). Plates were placed in the CO2 incubator overnight. Compounds solution (2 mM starting, 4-fold serial dilution) were prepared and added to the wells containing 100 μL of the culture medium with HPD300 according to the plate map and centrifuge at 1000 rpm for 1 minutes (200-fold dilution totally). MV4-11, MOLM13, OCI-AML3 and HL-60 cells were incubated with the compounds for 4, 12, 5 and 4 days, respectively, under 5% CO2 at 37° C., respectively. 100 μL of CellTiter-Glo reagent (Promega, Cat. No. G7573, Lot. No. 0000416710) was added to the assay plate by Multidrop Combi instrument, contents were mixed for 10 minutes on an orbital shaker to induce cell lysis. After incubation at room temperature for 10 mins, clear bottom with white back seal was pasted and luminescence with Envision was read.
In general terms: Cellular ATP, detected with luciferase, serves as a proxy for viable cell number.

In test [2] the target is T1, Menin-MLL1 (Homo sapiens, UniProt O00255).
T1 construct: Menin (2-610) isform2; purchased ChemPartner 2020111101
T1 sequence (O00255 2-610): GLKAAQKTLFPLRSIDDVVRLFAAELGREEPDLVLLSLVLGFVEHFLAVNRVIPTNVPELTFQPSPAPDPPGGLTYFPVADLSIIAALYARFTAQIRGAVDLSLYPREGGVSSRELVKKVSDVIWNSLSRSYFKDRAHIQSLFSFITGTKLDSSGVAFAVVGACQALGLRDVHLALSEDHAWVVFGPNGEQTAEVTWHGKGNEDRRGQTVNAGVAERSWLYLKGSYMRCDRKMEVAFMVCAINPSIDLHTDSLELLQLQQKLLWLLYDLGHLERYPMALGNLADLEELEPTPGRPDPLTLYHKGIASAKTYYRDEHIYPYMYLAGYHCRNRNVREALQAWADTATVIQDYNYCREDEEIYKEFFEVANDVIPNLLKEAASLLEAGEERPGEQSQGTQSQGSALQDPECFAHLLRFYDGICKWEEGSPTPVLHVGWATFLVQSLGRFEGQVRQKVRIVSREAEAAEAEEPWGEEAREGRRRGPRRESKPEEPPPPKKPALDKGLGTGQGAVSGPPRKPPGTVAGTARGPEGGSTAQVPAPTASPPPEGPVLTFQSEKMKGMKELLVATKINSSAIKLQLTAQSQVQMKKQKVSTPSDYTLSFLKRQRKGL
Put plainly: Menin-MLL1 inhibition assay (fluorescence polarization, Menin protein + FAM-MLL peptide). The test is classed as binding. As to conditions: Menin (2-610) isoform 2, FAM-labelled MLL peptide, mP readout; read-out: Biochemical assay Menin-MLL1 IC50. Here is the method:
1× assay bu9ffer (Tris 7.5 50 mM, NaCl 50 mM, DTT 1 mM, Tween-20 0.01%) was prepared and test compounds solution (10 mM in DMSO, Sigma, Cat. No. 34869) were transferred to assay plate (384-well plate, Perkin Elmer, Cat. No. 6007279) by Echo. The final fraction of DMSO is 1%. 20 nM of Menin protein (Menin (2-610) isform2, ChemPartner, Cat. No. 2020111101) in 1× assay buffer was added to prepare 2× enzyme solution. Then 10 nM of MLL-peptide (Ac-SRWRFPARPGTGRR-Ahx-Ahx-K(FAM)-NH2, GL Biochem (Shanghai)), Cat. No. 833831/202009220104) in 1× assay buffer was added to prepare 2× substrate solution. 10 μL of 2× enzyme solution was transferred to assay plate or 10 μL of 1× assay buffer for low control group. 10 μL of 2× substrate solution was added to each well to start reaction. mP data on Envision (Ex480/Em535(s), Em535(p)) was collected.
Compound potencies were determined by first calculating % inhibition at each compound concentration according to equation 1:
Inhibition %=(Max−Signal)/(Max−Min)*100 (Equation 1)
Y=Bottom+(Top-Bottom)/(1+(IC50/X)[…]), where Y is % inhibition and X is compound concentration (Equation 2)
On the technique in general: Polarisation of emitted light reports the rotation of a fluorescent probe.

pIC50: −log10 of the molar value.

As for `[2H]c1c(F)cc(C(=O)N(CC)C(C)C)c(Oc2cncnc2N2CC3(CCN(C(=O)[C@@H]4C[C@@H](F)CN4)CC3)C2)c1[2H]` [Example 31], the pIC50 was 7.39 in test [1] and 8.17 in test [2].

Take `CCN(C(=O)c1cc(F)ccc1Oc1cncnc1N1CC2(CCN(C(=O)[C@@H]3C[C@H]4C[C@H]4N3)CC2)C1)C(C)C` [Example 32]: the pIC50 in test [1] was 7.12; in test [2], 8.19.

In the case of `CCN(C(=O)c1cc(F)ccc1Oc1cncnc1N1CC2(CCN(C(=O)[C@H]3NCc4ccccc43)CC2)C1)C(C)C` [Example 33], the results for the pIC50 in test [1] and in test [2] were 7.71 and 8.35, respectively.

For `CCN(C(=O)c1ccccc1Oc1cncnc1N1CC2(CCN(C(=O)[C@@H]3C[C@@H](F)CN3)CC2)C1)C(C)C` [Example 36], the values for the pIC50 in test [1] and in test [2] were 7.18 and 8.40, respectively.

For the compound `CCN(C(=O)c1cc(F)ccc1Oc1cncnc1N1CC2(CCN(C(=O)[C@H]3NCC[C@H]3C)CC2)C1)C(C)C` [Example 40], the pIC50 in test [1] is 7.58; in test [2], 8.27.

Turning to `CC(C)n1ncnc1-c1cc(F)ccc1Oc1cncnc1N1CC2(CCN(C(=O)[C@@H]3C[C@@H](F)CN3)CC2)C1` [Example 43], the pIC50 in test [1] was 6.77; in test [2], 8.32.

For `CCN(C(=O)c1cc(F)ccc1Oc1cncnc1N1CC2(CCN(C(=O)[C@H]3NCc4c3cnn4Cc3ccccc3)CC2)C1)C(C)C` [Example 44], the figures for the pIC50 in test [1] and in test [2] were 7.51 and 8.41, respectively.

As for `CC(C)N(CC(F)F)C(=O)c1cc(F)ccc1Oc1cncnc1N1CC2(CCN(C(=O)[C@@H]3C[C@@H](F)CN3)CC2)C1` [Example 45], the pIC50 in test [1] is 7.44; in test [2], 8.47.

As for `CCN(C(=O)c1cc(F)ccc1Oc1cncnc1N1CCC2(CC1)CN(C(=O)[C@@H]1C[C@@H](F)CN1)C2)C(C)C` [Example 46], the values for the pIC50 in test [1] and in test [2] were 6.31 and 8.11, respectively.

Consider `CCN(C(=O)c1cc(F)ccc1Oc1cncnc1N1CC2(CCN(C(=O)[C@@H]3C[C@@H](c4ccccc4)CN3)CC2)C1)C(C)C` [Example 48], for which the pIC50 in test [1] is 6.84; in test [2], 7.94.

Consider `COCCN(C(=O)c1cc(F)ccc1Oc1cncnc1N1CC2(CCN(C(=O)[C@@H]3C[C@@H](F)CN3)CC2)C1)C(C)C` [Example 50], for which the figures for the pIC50 in test [1] and in test [2] were 6.92 and 8.36, respectively.

On to `C[C@@H]1COCCN1C(=O)c1cc(F)ccc1Oc1cncnc1N1CC2(CCN(C(=O)[C@@H]3C[C@@H](F)CN3)CC2)C1` [Example 51], for which the pIC50 in test [1] was 6.66; in test [2], 8.37.

For `C[C@H]1COCCN1C(=O)c1cc(F)ccc1Oc1cncnc1N1CC2(CCN(C(=O)[C@@H]3C[C@@H](F)CN3)CC2)C1` [Example 53], the pIC50 in test [1] was 6.10; in test [2], 7.96.

In the case of `CCN(C(=O)c1cc(F)ccc1Oc1cncnc1N1CC2(CCN(C(=O)[C@H]3NCc4[nH]ncc43)CC2)C1)C(C)C` [Example 54], the pIC50 in test [1] was 6.23; in test [2], 8.37.

As for `O=C([C@@H]1C[C@@H](F)CN1)N1CCC2(CC1)CN(c1ncncc1Oc1ccc(F)cc1C(=O)N1C3CCC1COC3)C2` [Example 59], the figures for the pIC50 in test [1] and in test [2] were 6.80 and 8.26, respectively.

With `CCN(C(=O)c1cc(F)ccc1Oc1nncnc1N1CC2(CCN(C(=O)[C@@H]3CC(CC#N)CN3)CC2)C1)C(C)C` (stereo partly drawn) [Example 61], the results for the pIC50 in test [1] and in test [2] were 6.81 and 8.21, respectively.

As for `CCN(C(=O)c1cc(F)ccc1Oc1nncnc1N1CC2(CCN(C(=O)[C@@H]3NCCC3(C)C)CC2)C1)C(C)C` [Example 66], the pIC50 in test [1] is 6.51; in test [2], 7.96.

Regarding `CC[C@@H]1CCN[C@H]1C(=O)N1CCC2(CC1)CN(c1ncnnc1Oc1ccc(F)cc1C(=O)N(CC)C(C)C)C2` [Example 71], the figures for the pIC50 in test [1] and in test [2] were 5.90 and 7.80, respectively.

On to `CC(C)N(C(=O)c1cc(F)ccc1Oc1nncnc1N1CC2(CCN(C(=O)[C@@H]3C[C@@H](C)CN3)CC2)C1)C(C)C` [Example 73], for which the pIC50 in test [1] is 7.66; in test [2], 8.39.

For the compound `CC(C)n1ncc(Cl)c1-c1cc(F)ccc1Oc1nncnc1N1CC2(CCN(C(=O)[C@@H]3C[C@@H](F)CN3)CC2)C1` [Example 75], the values for the pIC50 in test [1] and in test [2] were 7.39 and 8.24, respectively.

Take `CC(C)N(C(=O)c1cc(F)ccc1Oc1nncnc1N1CC2(CCN(C(=O)[C@H]3NCC[C@H]3C)CC2)C1)C(C)C` [Example 76]: the values for the pIC50 in test [1] and in test [2] were 7.78 and 8.43, respectively.

With `CCN(C(=O)c1cc(F)ccc1Oc1nncnc1N1CC2(CCN(C(=O)[C@@H]3NCC[C@H]3CF)CC2)C1)C(C)C` [Example 89], the values for the pIC50 in test [1] and in test [2] were 6.00 and 7.62, respectively.

`CCN(C(=O)c1cc(F)ccc1Oc1nnc(Cl)nc1N1CC2(CCN(C(=O)[C@H]3NC[C@@H]4C[C@@H]43)CC2)C1)C(C)C` [Example 91]: the pIC50 was 6.61 in test [1] and 8.14 in test [2].

On to `CCN(C(=O)c1cc(F)ccc1Oc1nncnc1N1CC2(CCN(C(=O)[C@H]3NC[C@H](C)[C@@H]3C)CC2)C1)C(C)C` [Example 92], for which the pIC50 was 7.73 in test [1] and 8.10 in test [2].

`CCN(C(=O)c1cc(F)ccc1Oc1nncnc1N1CC2(CCN(C(=O)[C@@H]3NC[C@@H](C)[C@H]3C)CC2)C1)C(C)C` [Example 93]: the pIC50 was 6.34 in test [1] and 7.61 in test [2].

For the compound `N#Cc1ccc(-c2cc(F)ccc2Oc2nncnc2N2CC3(CCN(C(=O)[C@H]4NC[C@@H]5C[C@@H]54)CC3)C2)c(C2CC2)n1` [Example 94], the results for the pIC50 in test [1] and in test [2] were 7.93 and 8.47, respectively.

As to `CC1(C)[C@@H]2[C@@H](C(=O)N3CCC4(CC3)CN(c3ncnnc3Oc3ccc(F)cc3-c3ccc(C#N)nc3C3CC3)C4)NC[C@@H]21` [Example 95], the pIC50 in test [1] was 8.26; in test [2], 8.60.

Consider `CO[C@H]1CCN[C@@H]1C(=O)N1CCC2(CC1)CN(c1ncnnc1Oc1ccc(F)cc1-c1ccc(C#N)cc1C1CC1)C2` [Example 96], for which the pIC50 in test [1] was 8.25; in test [2] it was 8.40.

Consider `CCN(C(=O)c1cc(F)ccc1Oc1nncnc1N1CC2(CCN(C(=O)[C@H]3NCC[C@@H]3C(F)F)CC2)C1)C(C)C` [Example 99a, 2-((5-(7-((2S,3S)-3-(difluoromethyl)pyrrolidine-2-carbonyl)-2,7-diazaspiro[3.5]nonan-2-yl)-1,2,4-triazin-6-yl)oxy)-N-ethyl-5-fluoro-N-isopropylbenzamide], for which the pIC50 in test [1] was 7.33; in test [2] it was 8.27.

As for `CCN(C(=O)c1cc(F)ccc1Oc1nncnc1N1CC2(CCN(C(=O)[C@@H]3NCC[C@H]3C(F)F)CC2)C1)C(C)C` [Example 99b, 2-((5-(7-((2R,3R)-3-(difluoromethyl)pyrrolidine-2-carbonyl)-2,7-diazaspiro[3.5]nonan-2-yl)-1,2,4-triazin-6-yl)oxy)-N-ethyl-5-fluoro-N-isopropylbenzamide], the pIC50 is 5.71 in test [1] and 7.37 in test [2].
